“And” between values parts separate entries of the source, which are not always exact repeats. Equal entries are not always repeated. Non-standard residues stand in square brackets, D forms with d. Residues, ends and D or L forms follow the SMILES beside them. *: point of attachment. boroGlu = O=C(O)CC[C@H](N*)B(O)O; Gly(cPr) = N[C@H](C(=O)O)C1CC1
What was measured:
[1] = system: CylLS” in C+ E. faecalis ATCC 29212; assay: Detection of CylLS” from extracts of E. faecalis (LCMS); assay type: cell-based, Enterococcus faecalis; conditions: for Concentration CylLS (Figure 8C), replicates 1-4: ATCC 29212 overnight culture extract; for Concentration CylLS (Figure 8C), avg: n = 4
Experimental: To determine if inhibitor 9 blocks the maturation of cytolysin in C+ E. faecalis, an LCMS method was developed to estimate the concentration of CylLS” in cell extracts. This method employed biosynthetically prepared ^15N,^13C-labeled CylLS” as an internal standard. Cultures of E. faecalis were treated with inhibitor 9 or vehicle then lyophilized and extracted with methanol.
An overnight culture of E. faecalis ATCC 29212 was diluted to an OD600 equal to 2.0 in BHI then further diluted 1000-fold in BHI. Inhibitor 9 or vehicle was added immediately after dilution and the inoculated samples were incubated with shaking at 37 °C for 20 h. Following incubation, a 400 µL aliquot of each sample was flash frozen and lyophilized. Each lyophilized sample was extracted with 400 µL of 90% methonal/10% water containing ^15N,^13C-labeled CylLS” (5.8 nM). Alternating rounds of water bath sonication and vortexing were used to homogenize the samples. Once homogenized, the samples were allowed to stand at room temperature for 1 h then were centrifuged at 16,000 g for 10 min, incubated at −20 °C for 1 h, and centrifuged at 16,000 g for 10 min. The supernatant was analyzed by LCMS using injection volumes of 5 µL. EIC corresponding to the exact masses of [M + 2H]^2+ and [M+Na+H]^2+ were integrated and the peak areas were added together giving the total CylLS” and internal standard responses. The concentration of CylLS” was estimated from the response ratio multiplied by the concentration of the internal standard.

[2] = assay type: in vitro ADME, Enterococcus faecalis; conditions: 100 µM, 37 °C, 20 h
Experimental: To investigate the stability of 9 in the presence of E. faecalis, cell extracts treated with 9 were tested for inhibitory activity. […] Cultures that were treated with 100 µM of 9 at 37 °C for 20 h gave extracts that inhibited the activity of CylA in vitro. The inhibitory activity of these extracts was about 3-fold less than a sample of fresh 9.
Similiarly, 9 was diluted to 100 µM in BHI that was inoculated with E. faecalis ATCC 29212 before incubating at 37 °C for 20 h. The overnight culture was flash frozen and lyophilized. The lyophilized samples were extracted with a volume of 90% methanol/10% water that was equal to the volume of the sample prior to lyophilization. The extract was assumed to have a concentration of 100 µM. […]
Human Serum + 9 Human Serum
Log(Concentration (µM)) Log(Concentration(µM))
Supplementary Figure 19. The stability of inhibitor 9 in the pres ence of human serum or C+ E. faecalis. A ) C y l A i nhibition activity of an extract of human s erum treated with 9 (100 μM) for 3 h at 37 ̊C. The resulting solution was used to determine the remaining activity of the inhibitor in a […]
CylA activity assay. […] This experiment was perform ed on three different samples of inhibitor (n = 3). […]
(also on this page, place not known: determined. inhibition CylA These IC 50 presence serum This performed A) Non-linear fitting v i/vo IC 50. […]

CC(=O)NCC(=O)N[C@@H](CC(=O)O)C(=O)N[C@H](C(=O)N[C@@H](CCC(N)=O)C(=O)N[C@@H](C)C(=O)N[C@@H](CCC(=O)O)B(O)O)C1CC1 [Compound 9] (Ac-GD[Gly(cPr)]QA-boroGlu)
quantities of CylLS” less than the untreated control ([1]; 100 µM, on average): 5.5 fold
Concentration CylLS (Figure 8C), replicates 1-4 ([1]; Conc 1 uM of 9): 1.79 nM and 1.72 nM and 1.6 nM and 1.8 nM
Concentration CylLS (Figure 8C), avg ([1]; Conc 1 uM of 9): 1.726 nM
Concentration CylLS (Figure 8C), replicates 1-4 ([1]; Conc 10 uM of 9): 2.34 nM and 2.21 nM and 2.19 nM and 2.55 nM
Concentration CylLS (Figure 8C), avg ([1]; Conc 10 uM of 9): 2.322 nM
Concentration CylLS (Figure 8C), replicates 1-4 ([1]; Conc 100 uM of 9): 0.272 nM and 0.227 nM and 0.262 nM and 0.247 nM
Concentration CylLS (Figure 8C), avg ([1]; Conc 100 uM of 9): 0.2518 nM
inhibitory activity of culture extracts less than a sample of fresh 9 [2]: about 3 fold
stability in cultures of E. faecalis [2]: relatively good stability

— article PMC12304293, “Combatting virulent gut bacteria by inhibiting the biosynthesis of a two-component lanthipeptide toxin” (Nature Communications, 2025)
